Measured values taken from patent publication US10610520B2, “Heterocyclic compound” (Takeda Pharmaceutical Company Limited, priority 2016, dated 2020).

Molecular target: T1, His-hMAGL (recombinant polyhistidine tagged human MAGL protein) (Homo sapiens, UniProt Q99685)
T1 construct: made in house; host or cells: E. coli BL21(DE3)
T1 sequence (Q99685 1-303): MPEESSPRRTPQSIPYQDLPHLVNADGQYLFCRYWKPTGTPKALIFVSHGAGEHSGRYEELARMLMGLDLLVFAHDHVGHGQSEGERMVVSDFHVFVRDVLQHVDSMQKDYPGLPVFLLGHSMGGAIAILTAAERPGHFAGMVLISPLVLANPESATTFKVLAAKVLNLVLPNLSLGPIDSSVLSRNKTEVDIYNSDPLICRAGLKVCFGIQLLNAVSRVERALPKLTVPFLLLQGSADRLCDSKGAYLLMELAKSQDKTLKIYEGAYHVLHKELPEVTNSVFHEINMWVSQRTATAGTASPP
Experiment: Measurement of MAGL inhibitory activity (arachidonic acid production from 2-arachidonylglycerol, RapidFire-mass spectrometry)
Type: biochemical
Conditions: MAGL inhibitory rate, test compound 10 μM, 60 min preincubation, 2-arachidonylglycerol substrate
Experimental: The His-hMAGL obtained above was diluted with enzyme reaction buffer (10 mM Tris-HCl, pH 7.5, 1 mM EDTA, 0.025 (w/v) % Triton X-100, 0.01% Bovine serum albumin) to a concentration of 7.5 ng/mL. […] Thereafter, to each well was added 5 μL of 150 μM 2-arachidonylglycerol (Tocris Bioscience), and the mixture was incubated at room temperature for 10 min. Then, 10 μL of 2% formic acid (Wako Pure Chemical Industries, Ltd.) was added to stop the reaction. Furthermore, acetonitrile (50 μL) containing 3 μM arachidonic acid-d8 (Cayman Chemical Company) was added and the mixture was stirred.
The amount of arachidonic acid in the obtained enzyme reaction mixture was calculated by measuring by RapidFire-mass spectrometry and correcting by the amount of arachidonic acid-d8. High Throughput online solid phase extraction was performed using RapidFire 300™ system (Agilent Technologies, Inc.). Samples were loaded on SPE C4 cartridge (Agilent Technologies, Inc.) and desalted with 0.2 (v/v) % acetic acid (Wako Pure Chemical Industries, Ltd.) in ultrapure water/acetonitrile (70/30, v/v) at a flow rate of 1.5 mL/min, eluted at a flow rate of 0.5 mL/min with 0.2 (v/v) % acetic acid dissolved in acetonitrile/ultrapure water (90/10, v/v), and injected into the mass spectrometry part. The injection needle was washed with ultrapure water (500 millisecond) and acetonitrile (500 millisecond) to minimize carry-over. […] The RapidFire300 system was controlled by RapidFire UI software version 3.6 (Agilent Technologies, Inc.).
The mass spectrometry of the resultant product was performed using API4000™ triple quadrupole mass spectrometer (AB SCIEX) equipped with an electrospray ion sauce (TurboIon Spray™) in a negative selected reaction monitoring (SRM) mode. The conditions of SRM are shown below. The parameters of the instrument were optimized as follows: capillary temperature 600° C., ion spray voltage −4.5 kV, collision gas 8, curtain gas 15 psi, ion source gas 1 60 psi, ion source gas 2 60 psi. The mass spectrometer was controlled by Analyst™ software version 1.5.1 (AB SCIEX). The peak area integration was analyzed using RapidFire integrator software version 3.6 (Agilent Technologies, Inc.).
MAGL inhibitory rate (%) was calculated according to the following calculation formula. (1-(arachidonic acid production amount of test compound addition group−arachidonic acid production amount of enzyme-free group)÷(arachidonic acid production amount of test compound-free group−arachidonic acid production amount of enzyme-free group))×100

Row | inhibition at 10 µM [%] | SMILES
1 | 94 | O=C1CCC2(CN(C(=O)c3cc4ccc(C(F)(F)F)cc4s3)C2)N1 [Example 30, 2-((6-(trifluoromethyl)-1-benzothiophen-2-yl)carbonyl)-2,5-diazaspiro[3.4]octan-6-one]
2 | 84 | O=C1CCC2(CN(C(=O)c3ccc(-c4ccccc4)cc3F)C2)N1 [Example 31, 2-((3-fluorobiphenyl-4-yl)carbonyl)-2,5-diazaspiro[3.4]octan-6-one]
3 | 85 | O=C1CCC2(CN(C(=O)c3cc4cc(C(F)(F)F)ccc4s3)C2)N1 [Example 33, 2-((5-(trifluoromethyl)-1-benzothiophen-2-yl)carbonyl)-2,5-diazaspiro[3.4]octan-6-one]
4 | 99 | O=C1CCC2(CN(C(=O)N3CC(COc4ccc(F)cc4Cl)C3)C2)N1 [Example 34, 2-((3-((2-chloro-4-fluorophenoxy)methyl)azetidin-1-yl)carbonyl)-2,5-diazaspiro[3.4]octan-6-one]
5 | 99 | O=C1CCC2(CN(C(=O)c3sc4cc(Br)ccc4c3Cl)C2)N1 [Example 35, 2-((6-bromo-3-chloro-1-benzothiophen-2-yl)carbonyl)-2,5-diazaspiro[3.4]octan-6-one]
6 | 99 | O=C1CCC2(CN(C(=O)c3sc4cc(-c5ccc(F)cc5)ccc4c3Cl)C2)N1 [Example 36, 2-((3-chloro-6-(4-fluorophenyl)-1-benzothiophen-2-yl)carbonyl)-2,5-diazaspiro[3.4]octan-6-one]
7 | 99 | O=C1CCC2(CN(C(=O)c3sc4cc(-c5cccc(F)c5)ccc4c3Cl)C2)N1 [Example 37, 2-((3-chloro-6-(3-fluorophenyl)-1-benzothiophen-2-yl)carbonyl)-2,5-diazaspiro[3.4]octan-6-one]
8 | 103 | O=C1CCC2(CN(C(=O)c3sc4cc(-c5ccccc5F)ccc4c3Cl)C2)N1 [Example 38, 2-((3-chloro-6-(2-fluorophenyl)-1-benzothiophen-2-yl)carbonyl)-2,5-diazaspiro[3.4]octan-6-one]
9 | 101 | O=C1CCC2(CN(C(=O)c3sc4cc(-c5ccc(F)cc5F)ccc4c3Cl)C2)N1 [Example 39, 2-((3-chloro-6-(2,4-difluorophenyl)-1-benzothiophen-2-yl)carbonyl)-2,5-diazaspiro[3.4]octan-6-one]
10 | 98 | O=C1CCC2(CN(C(=O)c3ccc(-c4ccc(C(F)(F)F)cc4)cc3)C2)N1 [Example 40, 2-((4′-(trifluoromethyl)biphenyl-4-yl)carbonyl)-2,5-diazaspiro[3.4]octan-6-one]
11 | 87 | COc1cc(-c2ccccc2)ccc1C(=O)N1CC2(CCC(=O)N2)C1 [Example 43, 2-((3-methoxybiphenyl-4-yl)carbonyl)-2,5-diazaspiro[3,4]octan-6-one]
12 | 100 | O=C1CCC2(CN(C(=O)c3ccc(-c4ccc(C(F)(F)F)c(Cl)c4)cc3)C2)N1 [Example 44, 2-((3′-chloro-4′-(trifluoromethyl)biphenyl-4-yl)carbonyl)-2,5-diazaspiro[3.4]octan-6-one]
13 | 97 | O=C1CCC2(CN(C(=O)c3ccc(-c4ccc(C(F)(F)F)c(F)c4)cc3)C2)N1 [Example 45, 2-((3′-fluoro-4′-(trifluoromethyl)biphenyl-4-yl)carbonyl)-2,5-diazaspiro[3.4]octan-6-one]
14 | 96 | O=C1CCC2(CN(C(=O)c3ccc(-c4ccc(C(F)(F)F)cc4F)cc3)C2)N1 [Example 46, 2-((2′-fluoro-4′-(trifluoromethyl)biphenyl-4-yl)carbonyl)-2,5-diazaspiro[3.4]octan-6-one]
15 | 96 | O=C1CCC2(CN(C(=O)c3ccc(-c4ccc(C(F)(F)F)cc4Cl)cc3)C2)N1 [Example 47, 2-((2′-chloro-4′-(trifluoromethyl)biphenyl-4-yl)carbonyl)-2,5-diazaspiro[3.4]octan-6-one]
16 | 98 | O=C1CCC2(CN(C(=O)c3ccc(-c4cc(C(F)(F)F)cc(C(F)(F)F)c4)cc3)C2)N1 [Example 48, 2-((3′,5′-bis(trifluoromethyl)biphenyl-4-yl)carbonyl)-2,5-diazaspiro[3.4]octan-6-one]

Row | inhibition at 10 µM [%] | SMILES
17 | 99 | O=C1CCC2(CN(C(=O)c3ccc(-c4cccc(C(F)(F)F)c4F)cc3)C2)N1 [Example 49, 2-((2′-fluoro-3′-(trifluoromethyl)biphenyl-4-yl)carbonyl)-2,5-diazaspiro[3.4]octan-6-one]
18 | 98 | O=C1CCC2(CN(C(=O)c3ccc(-c4ccc(F)c(C(F)(F)F)c4)cc3)C2)N1 [Example 50, 2-((4′-fluoro-3′-(trifluoromethyl)biphenyl-4-yl)carbonyl)-2,5-diazaspiro[3.4]octan-6-one]
19 | 99 | O=C1CCC2(CN(C(=O)c3ccc(-c4cccc(C(F)(F)F)c4Cl)cc3)C2)N1 [Example 51, 2-((2′-chloro-3′-(trifluoromethyl)biphenyl-4-yl)carbonyl)-2,5-diazaspiro[3.4]octan-6-one]
20 | 99 | O=C1CCC2(CN(C(=O)c3ccc(-c4ccc(Cl)c(C(F)(F)F)c4)cc3)C2)N1 [Example 52, 2-((4′-chloro-3′-(trifluoromethyl)biphenyl-4-yl)carbonyl)-2,5-diazaspiro[3.4]octan-6-one]
21 | 99 | O=C1CCC2(CN(C(=O)c3ccc(-c4cc(C5CC5)ccc4F)cc3)C2)N1 [Example 53, 2-((5′-cyclopropyl-2′-fluorobiphenyl-4-yl)carbonyl)-2,5-diazaspiro[3.4]octan-6-one]
22 | 99 | CC(C)(C)c1ccc(-c2ccc(C(=O)N3CC4(CCC(=O)N4)C3)cc2)cc1 [Example 54, 2-((4′-tert-butylbiphenyl-4-yl)carbonyl)-2,5-diazaspiro[3.4]octan-6-one]
23 | 101 | CC(C)(C)c1cccc(-c2ccc(C(=O)N3CC4(CCC(=O)N4)C3)cc2)c1 [Example 55, 2-((3′-tert-butylbiphenyl-4-yl)carbonyl)-2,5-diazaspiro[3.4]octan-6-one]
24 | 94 | Cn1c(-c2ccc(C(=O)N3CC4(CCC(=O)N4)C3)cc2)cc2ccccc21 [Example 56, 2-(4-(1-methyl-1H-indol-2-yl)benzoyl)-2,5-diazaspiro[3.4]octan-6-one]
25 | 99 | O=C1CCC2(CN(C(=O)c3ccc(-c4ccc5c(c4)CCC5)cc3)C2)N1 [Example 57, 2-(4-(2,3-dihydro-1H-inden-5-yl)benzoyl)-2,5-diazaspiro[3.4]octan-6-one]
26 | 96 | O=C1CCC2(CN(C(=O)c3ccc(-c4ccc(OC(F)(F)F)cc4)cc3)C2)N1 [Example 58, 2-((4′-(trifluoromethoxy)biphenyl-4-yl)carbonyl)-2,5-diazaspiro[3.4]octan-6-one]
27 | 97 | O=C1CCC2(CN(C(=O)c3ccc(-c4ccc(OC(F)(F)F)cc4F)cc3)C2)N1 [Example 59, 2-((2′-fluoro-4′-(trifluoromethoxy)biphenyl-4-yl)carbonyl)-2,5-diazaspiro[3.4]octan-6-one]
28 | 98 | O=C1CCC2(CN(C(=O)c3ccc(-c4cccc(OC(F)(F)F)c4)cc3)C2)N1 [Example 60, 2-((3′-(trifluoromethoxy)biphenyl-4-yl)carbonyl)-2,5-diazaspiro[3.4]octan-6-one]
29 | 97 | O=C1CCC2(CN(C(=O)c3ccc(-c4cc(OC(F)(F)F)ccc4F)cc3)C2)N1 [Example 61, 2-((2′-fluoro-5′-(trifluoromethoxy)biphenyl-4-yl)carbonyl)-2,5-diazaspiro[3.4]octan-6-one]
30 | 95 | O=C1CCC2(CN(C(=O)c3ccc(-c4ccccc4OC(F)(F)F)cc3)C2)N1 [Example 62, 2-((2′-(trifluoromethoxy)biphenyl-4-yl)carbonyl)-2,5-diazaspiro[3.4]octan-6-one]
31 | 99 | O=C1CCC2(CN(C(=O)c3ccc(-c4ccc(C5(C(F)(F)F)CC5)cc4)cc3)C2)N1 [Example 63, 2-((4′-(1-(trifluoromethyl)cyclopropyl)biphenyl-4-yl)carbonyl)-2,5-diazaspiro[3.4]octan-6-one]
